Assay results reported in US20060052307A1, “Bone growth factor” (priority 2002, published 2006).
Where “and” joins values, the source holds several entries; their conditions need not be identical. Identical values can stand only once. Bridges are numbered along the chain shown (N, C = ends). Roman numbers before positions name the chains, in order. The star is where a group is joined. Cam = NC(=O)C*

Key:
[1] = tested on: Sprague-Dawley rats; assay: Bone mineral apposition rate after a single subcutaneous peptide injection, double tetracycline labelling, distal metaphysis of the right femur; assay type: in vivo, rat; set-up: Bone mineral apposition rate, group mean (Table 2): unit not given here; settings: male rats; for BONE MINERAL APPOSITION, individual rats (Table 6) / Effect on bone mineral apposition / BONE MINERAL APPOSITION, MEAN (Table 6): Example 3, 300 nmoles/kg S.C.; for BONE MINERAL APPOSITION, MEAN (Table 6): control 1.62; for Effect on bone mineral apposition rate versus control / Bone mineral apposition rate, individual rats (Table 2) / Bone mineral apposition rate, group mean (Table 2): Example 1; for Bone mineral apposition rate, individual rats (Table 2) / Bone mineral apposition rate, group mean (Table 2): 300 nmoles/kg s.c. single dose; for Bone mineral apposition rate, group mean (Table 2): N=4, control 1.48
Method: Test peptides were administered by subcutaneous injection to the right gluteal region of the rats after being dissolved in a carrier buffer comprising PBS containing 0.1% heat inactivated BSA at pH 7.4. The dose was 300 nmoles/kg bodyweight in an injection volume of 400 μl.
Male Sprague-Dawley rats from Charles River Laboratory were used. The weight of the animals was approximately 350 g. They were housed in pairs in standard shoebox cages. Purina rat chow and tap water were provided ad libitum. The light/dark cycle was 12 hours, the temperature 22° C. and the humidity 50%. The animals were acclimatized for one week before initiating dosing.
Bone mineral apposition rate as measured for the distal metaphysis of the right femur was the parameter for the assessment of activity. Two doses of tetracycline hydrochloride (Sigma), 24 mg/kg body weight were administered I.M. in an injection volume of 800 μl to the left gluteus maximus muscle. The first dose was given immediately following the administration of the peptide, and the second dose 48 hours later. 24 hours after the second dose of tetracycline, the animals were sacrificed by carbon dioxide narcosis. The right femur was dissected clear of muscles and a 0.5 cm cross section of the bone 1 mm below the upper epiphyseal cartilage was taken and processed undecalcified for histological preparation of […]. Bone mineral apposition rate was measured in 15 randomly selected bone formation sites with two tetracycline labels in the trabecular bone. The arithmetic mean of these 15 sites was taken as the mean bone mineral apposition for the respective animals.
The dose of peptide was dissolved in 400 μl of buffer comprising of PBS with 0.1% of heat inactivated BSA and the method for the determination of bone mineral apposition rate was as described before.
Experimental design: Animals were grouped in four. All groups received a single dose of SEQ ID NO:2 (300 nmoles/kg) subcutaneously injected to the right gluteal region at Day 0 at approximately the same time within 15 minutes. Two doses tetracycline labeling at intervals of 48 hours was used to measure bone mineral apposition rate. The control group received buffer injection only.

[2] = Stability of peptides in solution, intact peptide remaining by HPLC peak height; assay type: physicochemical; settings: pH 7.4
Method: Solvents for test peptides: Milli-Q water filtered through […] filter; resistance—18.2 Mega Ohms
Phosphate buffered saline: pH […] from Gibco (Cat. #100113-023)
20. mM sodium acetate buffer: pH 4.5 prepared with Milli-Q water and filtered through […] filter.
Peptides: The test peptides included those of SEQ ID NOs: 2, 3, 4 & 7.
Peptide preparation: Test peptides were dissolved in either PBS or sodium acetate buffer at a concentration of 0.2 mg per ml. The purity of the test peptides was greater than 95%.
Method for testing stability: Stability of the peptides was examined at pH7.4 and at room temperature, 4° C. and 37° C. The amount of intact peptide remaining over time was compared with the initial intact amount. The quantification of the amount of peptide was based on peak height in an HPLC profile.

[3] = tested on: Sprague-Dawley rats; assay: Bone mineral apposition rate after a single subcutaneous peptide injection, double tetracycline labelling, distal metaphysis of the right femur; assay type: in vivo, rat; set-up: unit not given here; settings: Example 2, 300 nmoles/kg s.c., N=3, control 1.18

Row | Substance | BONE MINERAL APPOSITION, individual rats (Table 6) [1] | Effect on bone mineral apposition [1] | BONE MINERAL APPOSITION, MEAN (Table 6) [1] | Effect on bone mineral apposition rate versus control ([1]; 300 nmoles/kg s.c.) | Bone mineral apposition rate, individual rats (Table 2) [1] | Bone mineral apposition rate, group mean (Table 2) [1] | further results
1 | Ac-R T N E H T A D C K —NH2 (Ac-RTNEHTADCK-NH2) [SEQ ID NO: 8, monomer] | 2.27 µm/d and 1.78 µm/d and 2.15 µm/d and 2.01 µm/d | significantly stimulated | 2.05 µm/d |  |  |  | 
2 | Ac-R T Q E H T A E C K —NH2 (Ac-RTQEHTAECK-NH2) [SEQ ID NO: 7, monomer, prior art peptide] | 1.91 µm/d and 1.73 µm/d (2×) and 2.06 µm/d | significantly stimulated | 1.86 µm/d | significantly higher than the control group | 2.41 µm/d and 2.54 µm/d and 2.25 µm/d and 2.24 µm/d | 2.36 | Degradation in solution ([2]; 4° C. and room temperature, 6 months): totally degraded; Degradation in solution ([2]; 4° C. and room temperature, over three months): substantial degradation; Degradation in solution ([2]; 37° C., over 3 weeks): substantial degradation
3 | K-T-Q-E-F-T-A-E-M-K [SEQ ID NO: 1] |  |  |  |  |  |  | Bone Mineral Apposition Rate, Mean rate (Table 4) [3]: 1.61
4 | SEQ ID NO: 5: peptide of SEQ ID NO:7 with a carboxyamidomethyl residue modifying cysteine at the 9-position of the decamer (Ac-RTQEHTAEC(Cam)K-NH2) |  |  |  |  |  |  | Bone mineral apposition rate compared with the prior art peptide of SEQ ID NO: 7 (FIG. 5) ([1]; Example 4, 300 nmoles/kg s.c.): significantly greater
5 | SEQ ID NO: 7, dimer: dimerized form of the peptide having SEQ ID NO:7, disulfide bonding between the cysteine residues (chain 1 Ac-RTQEHTAECK-NH2; chain 2 Ac-RTQEHTAECK-NH2; disulfide I:9-II:9; also: disulfide-linked dimer) | 1.29 µm/d and 1.51 µm/d (2×) | significantly inhibit | 1.43 µm/d | inhibitory effect | 1.28 µm/d and 1.41 µm/d and 1.5 µm/d and 1.38 µm/d | 1.39 | 
6 | SEQ ID NO: 8, dimer: dimer form of the peptide with SEQ ID NO: 8 (chain 1 Ac-RTNEHTADCK-NH2; chain 2 Ac-RTNEHTADCK-NH2; not fully specified (bridges); cysteine pairing not given here; also: dimer, linkage not given here) | 1.39 µm/d and 1.43 µm/d and 1.42 µm/d and 1.36 µm/d | significantly inhibit | 1.4 µm/d |  |  |  | 
